# Reference: the supplement of paper PMC11208160
# Test: recombinant barcode read abundance after kanamycin selection (control-corrected) (log10(CPM+1)); higher = more efficient recombination; sequences stand for … in AGTGCAGAGAAAATCGGCCAGTTTTCTCTGCCTGCAGTCCGCATGCCGT…AGATTTATGCAGCGGACTGCCTTTCTCCCAAAGTGATAAACCGGACAGTATCATGGACCGGTTTTCCCGGTAATCCGTATTTGCAAGGTTGGTTTCACT; site = the 11-nt target
# Procedure, shortened: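 Pooled E. coli screen pairing targets with IS621 bridge RNA target-binding loops. Each oligo (promoter, target, barcode, J23119-driven first 104 bridge RNA bases) was Gibson-cloned into a vector with the remaining 73 bp and T7-inducible recombinase, then co-electroporated with a donor plasmid. Two replicates each were plated on chloramphenicol/ampicillin LB agar (control) or chloramphenicol/ampicillin/kanamycin with 0.1 mM IPTG. Recombination efficiency is recombinant-junction barcode counts as CPM, averaged, control-corrected, reported as log10(CPM+1).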
# 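Further: IS621 recombinase and bridge RNA in Escherichia coli cells.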
row,Sequence,recombinant barcode read abundance (log10)
1,TGTAGTCCTTGGGTTCTAACCTGTTGCAT (site TGTAGTCCTAC),0.0299
2,TGTAGTCCTTGGGTTCTAACCTGTTGCAT (site TGTAGTCCTAG),0.156
3,TGTAGTCCTTGGGTTCTAACCTGTTGCAT (site TGTAGTCCTAT),0.097
4,TGTAGTCCTTGGGTTCTAACCTGTTGCCT (site TGTAGTCCTAA),0.0423
5,TGTAGTCCTTGGGTTCTAACCTGTTGCCT (site TGTAGTCCTAC),0.0647
6,TGTAGTCCTTGGGTTCTAACCTGTTGCCT (site TGTAGTCCTAG),0.26
7,TGTAGTCCTTGGGTTCTAACCTGTTGCCT (site TGTAGTCCTAT),0.348
8,TGTATCGCTTGGGTTCTAACCTGTTGCCT (site TGTATCGCTAG),0.405
9,TGTATCGCTTGGGTTCTAACCTGTTGCCT (site TGTCCCGCTAG),0.149
10,TGTCAAACTTGGGTTCTAACCTGTTGCCT (site TGTCAAACTAG),0.298
11,TGTCAAACTTGGGTTCTAACCTGTTGCCT (site TGTCAACCTAG),0.176
12,TGTCAAACTTGGGTTCTAACCTGTTGCCT (site TGTCAAGCTAG),0.145
13,TGTCAAACTTGGGTTCTAACCTGTTGCCT (site TGTCAATCTAG),0.0654
14,TGTCAATCTTGGGTTCTAACCTGTTGCCT (site TGTCAAACTAG),0.243
15,TGTCAATCTTGGGTTCTAACCTGTTGCCT (site TGTCAACCTAG),0.061
16,TGTCAATCTTGGGTTCTAACCTGTTGCCT (site TGTCAAGCTAG),0.0211
17,TGTCAATCTTGGGTTCTAACCTGTTGCCT (site TGTCAATCTAG),0.0947
18,TGTCAATCTTGGGTTCTAACCTGTTGCGT (site TGTCAATCTAC),0.543
19,TGTCAATCTTGGGTTCTAACCTGTTGCGT (site TGTCGATCTAG),0.152
20,TGTCAGGCTTGGGTTCTAACCTGTTGCCT (site TGCTAGGCTAG),0.187
21,TGTCAGGCTTGGGTTCTAACCTGTTGCCT (site TGTCAGGCTAG),0.0749
22,TGTCGCACTTGGGTTCTAACCTGTTGCAG (site TGTAGCACTGT),0.123
23,TGTCGCACTTGGGTTCTAACCTGTTGCAG (site TGTCGCACTCT),0.313
24,TGTCTACCTTGGGTTCTAACCTGTTGCCT (site TGTCTACCTAG),0.191
25,TGTCTACCTTGGGTTCTAACCTGTTGCCT (site TGTCTATCTAG),0.653
26,TGTCTAGCTTGGGTTCTAACCTGTTGCCT (site TGACTAGCTAG),0.486

row,Sequence,recombinant barcode read abundance (log10)
1,TGTCTAGCTTGGGTTCTAACCTGTTGCCT (site TGCCTAGCTAG),0.0303
2,TGTCTAGCTTGGGTTCTAACCTGTTGCCT (site TGGCTAGCTAG),0.0711
3,TGTCTAGCTTGGGTTCTAACCTGTTGCCT (site TGTCTAGCTAG),0.038
4,TGTCTCCCTTGGGTTCTAACCTGTTGCCG (site TGTCTCCCTCG),0.261
5,TGTCTCCCTTGGGTTCTAACCTGTTGCCG (site TGTGTCCCTCG),0.108
6,TGTCTGCCTTGGGTTCTAACCTGTTGCCT (site AGTCTGCCTAG),0.104
7,TGTCTGCCTTGGGTTCTAACCTGTTGCCT (site CGTCTGCCTAG),0.122
8,TGTCTGCCTTGGGTTCTAACCTGTTGCCT (site GGTCTGCCTAG),0.0534
9,TGTCTGCCTTGGGTTCTAACCTGTTGCCT (site TGTCTGCCTAG),0.295
10,TGTGAGTCTTGGGTTCTAACCTGTTGCAT (site TGTGAGTCTAA),0.107
11,TGTGAGTCTTGGGTTCTAACCTGTTGCAT (site TGTGAGTCTAC),0.856
12,TGTGAGTCTTGGGTTCTAACCTGTTGCAT (site TGTGAGTCTAG),0.149
13,TGTGAGTCTTGGGTTCTAACCTGTTGCAT (site TGTGAGTCTAT),1.7
14,TGTGATCCTTGGGTTCTAACCTGTTGCAT (site TGAGATTCTAT),0.0352
15,TGTGATCCTTGGGTTCTAACCTGTTGCAT (site TGTGATCCTAT),1.4
16,TGTGCAACTTGGGTTCTAACCTGTTGCTG (site ATGCTTGCTTG),0.353
17,TGTGCAACTTGGGTTCTAACCTGTTGCTG (site TGTGCAACTCA),0.284
18,TGTGGAGCTTGGGTTCTAACCTGTTGCCG (site TGTAGAGCTCG),0.448
19,TGTGGAGCTTGGGTTCTAACCTGTTGCCG (site TGTCGAGCTCG),0.469
20,TGTGGAGCTTGGGTTCTAACCTGTTGCCG (site TGTGGAGCTCG),1.24
21,TGTGGAGCTTGGGTTCTAACCTGTTGCCG (site TGTTGAGCTCG),0.00933
22,TGTGTCCCTTGGGTTCTAACCTGTTGCCT (site TGAGTCCCTAG),0.159
23,TGTGTCCCTTGGGTTCTAACCTGTTGCCT (site TGCGTCCCTAG),0.139
24,TGTGTCCCTTGGGTTCTAACCTGTTGCCT (site TGGGTCCCTAG),0.123
25,TGTGTCCCTTGGGTTCTAACCTGTTGCCT (site TGTGTCCCTAG),1.14
26,TGTTAGTCTTGGGTTCTAACCTGTTGCCG (site TGTTAGACTAG),0.0136

row,Sequence,recombinant barcode read abundance (log10)
1,TGTTAGTCTTGGGTTCTAACCTGTTGCCG (site TGTTAGTCTCG),0.0597
2,TGTTCAGCTTGGGTTCTAACCTGTTGCCT (site CACAGGCCTCT),0.0146
3,TGTTCAGCTTGGGTTCTAACCTGTTGCCT (site TGTTCAGCTAG),0.066
4,TGTTCTACTTGGGTTCTAACCTGTTGCTT (site TGATCTACTAA),0.0326
5,TGTTCTACTTGGGTTCTAACCTGTTGCTT (site TGCTCTACTAA),0.246
6,TGTTCTACTTGGGTTCTAACCTGTTGCTT (site TGGTCTACTAA),0.0191
7,TGTTCTACTTGGGTTCTAACCTGTTGCTT (site TGTTCTACTAA),0.0296
8,TGTTGAGCTTGGGTTCTAACCTGTTGCAG (site TGTAGAGCTCT),0.148
9,TGTTGAGCTTGGGTTCTAACCTGTTGCAG (site TGTTGAGCTCT),0.468
10,TGTTGGACTTGGGTTCTAACCTGTTGCTT (site TCTTAGACTAA),0.0262
11,TGTTGGACTTGGGTTCTAACCTGTTGCTT (site TGTTGGACTAA),0.16
12,TGTTGGTCTTGGGTTCTAACCTGTTGCTT (site GAACTCCCTCC),0.0579
13,TGTTGGTCTTGGGTTCTAACCTGTTGCTT (site TGTTGGTCTAA),0.0212
14,TGTTGTCCTTGGGTTCTAACCTGTTGCTG (site AACATAACTAC),0.141
15,TGTTGTCCTTGGGTTCTAACCTGTTGCTG (site TGTTGTCCTCA),0.0482
16,TGTTGTGCTTGGGTTCTAACCTGTTGCCT (site TGGCGTGCTAG),0.101
17,TGTTGTGCTTGGGTTCTAACCTGTTGCCT (site TGTTGTGCTAG),0.109
18,TTAAATCCTTGGGTTCTAACCTGTTGCCT (site ATAAATCCTAG),0.143
19,TTAAATCCTTGGGTTCTAACCTGTTGCCT (site CTAAATCCTAG),0.183
20,TTAAATCCTTGGGTTCTAACCTGTTGCCT (site GTAAATCCTAG),0.249
21,TTAAATCCTTGGGTTCTAACCTGTTGCCT (site TTAAATCCTAG),0.219
22,TTAACGGCTTGGGTTCTAACCTGTTGCCT (site TTAACGGCTAG),0.556
23,TTAACGGCTTGGGTTCTAACCTGTTGCCT (site TTCACGGCTAG),0.186
24,TTACAGGCTTGGGTTCTAACCTGTTGCCG (site GGCATCCCTTA),0.0374
25,TTACAGGCTTGGGTTCTAACCTGTTGCCG (site TTACAGGCTCG),1.13
